What was measured:
[1] = target: T1, alphav integrins (Homo sapiens, UniProt P06756); details: large number of patients, phase III; cited from earlier work
T1 construct: host or cells: patients

[2] = test system: U87 MG cells stimulated by BV2 microglial cells; assay: Matrigel invasiveness of U87 MG cells in co-culture with BV2 microglia; type: cell-based, human; details: 100 μM, 18 h
Description: (§1) FIG. 4. Effect of OPN binding peptides on U87 MG cell invasiveness in the presence of murine BV2 and human SV40 microglial cells. (K−)—negative control—invasiveness of U87 MG cells without microglia; (K+)—positive control, invasiveness of U87 MG dependent on BV2 or SV40 microglia, defined as 100%; DMSO-cells treated with 0.2% DMSO-peptide solvent. Results are presented as means ±standard deviation calculated from three independent biological replicates. Selected peptides block microglia-dependent invasiveness.
(§2) Studies conducted by the present inventors indicate an important role of the OPN protein in the reprogramming of microglia and peripheral macrophages by glioblastoma cells to a protumorigenic phenotype (Ellert-Miklaszewska et al. 2016). […] Investigating the contribution of human OPN to human glioblastoma growth is important in the context of using a peptide that binds human OPN produced by glioma and can block communication between the glioma and the microenvironment. The U87 MG RFP human glioblastoma cell line was established with silenced expression of the OPN protein (shOPN). […] The number of glioma cells actively penetrating the Matrigel Matrix layer (BD Biosciences, extracellular matrix surrogate) in the presence of SV40 human microglial cells was counted. Microglial cells are plated on 24-well plate, after 24 hours, inserts previously covered with Matrigel suspension are placed in the wells, and glioblastoma cells are seeded on its surface. The tested compounds, potentially blocking the invasiveness of cells, are added in a certain concentration to the medium in both the lower and upper layers of the system. After 18 hours of incubation, the Matrigel is removed and the cells on the insert membrane (invading cells) are fixed and stained with a DAPI fluorescent marker. Slides were then photographed using a fluorescence microscope and cells were counted using Image J software (imagej.nih.gov/ij/).
(§3) The effect of selected OPN-binding peptides on the invasiveness of U87 MG cells stimulated by the presence of microglial cells was investigated. […]

[3] = test system: U87 MG cells and SV40 human microglia cells; assay: Matrigel invasiveness of U87 MG cells with SV40 human microglia; type: cell-based
Description: as §1, §2, §3

[4] = target: recombinant OPN protein (Homo sapiens, UniProt P10451); assay: ELISA assessing peptide-protein binding; details: N-terminal biotin peptides on OPN-coated plates
Sequence of recombinant OPN protein (P10451 17-314): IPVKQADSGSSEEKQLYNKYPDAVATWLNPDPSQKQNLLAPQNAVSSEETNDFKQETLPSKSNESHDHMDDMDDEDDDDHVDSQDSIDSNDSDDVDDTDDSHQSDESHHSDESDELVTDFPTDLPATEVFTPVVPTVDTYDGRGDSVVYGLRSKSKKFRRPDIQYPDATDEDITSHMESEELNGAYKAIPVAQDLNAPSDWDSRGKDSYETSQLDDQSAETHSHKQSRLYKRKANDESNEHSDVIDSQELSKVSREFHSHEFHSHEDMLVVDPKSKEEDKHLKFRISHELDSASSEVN
Description: FIGS. 2A and 2B. OPN-binding peptides. (FIG. 2A) OPN binding peptides were identified using peptide microarrays comprising synthetic peptides. Images of peptide microarrays after incubation with PBS buffer (control), with rhOPN and after immunochemical staining. Control peptides (peptide containing Myc tag—positive control) and peptides with the highest signal were marked on the microarray image. (FIG. 2B) OPN binding peptides identified using ELISA. Peptides with the strongest binding to OPN were selected. Means ±SD are shown, standard deviations were calculated from three independents measurements.
To verify the obtained results, the ELISA method assessing peptide-protein binding was used. In the assay, 96-well ELISA plates were coated with recombinant OPN protein. Uncoated wells were used as controls. Unbound proteins were then washed away and the remaining non-specific binding was blocked with bovine serum protein (BSA). Test peptides with N-terminal biotin attached were added. After incubation, unbound peptides were removed by washing several times. Peptides that bound to OPN were detected using a primary anti-biotin antibody and a secondary antibody linked to horseradish peroxidase. This enzyme catalyses a reaction in which a coloured product is formed from the added substrate. The amount of bound peptides was proportional to the amount of coloured product, which was measured using a spectrophotometer. Of the 52 integrin receptor-derived peptides tested, 9 OPN-binding peptides were identified: I3, I4, I20, I32, I38, I40, I47, I49, I50 (FIG. 2B). The following peptides were selected for further analysis: […], I4, I20, I32, I38, I40, I47, I49, I50.

[5] = test system: human glioblastoma U87 MG RFP cells implanted in the brain of nude mice; assay: Mouse model of human glioblastoma, intratumoural osmotic pump, MRI tumour size; type: in vivo; details: osmotic pump for 3 weeks, MRI T2, control peptide I49S
Description: FIGS. 5A and 5B. Effect of peptide 149 on glioblastoma growth in mice. (FIG. 5A) Representative images obtained after vital MRI imaging. The pictures show a section through the center of the tumour, showing the cannula supplying the peptide from the osmotic pump. (FIG. 5B) Tumour volume (n=10) calculated using OsiriX DICOM Viewer from MRI scans.
The anticancer effect of the 149 peptide has been tested. The model of human glioblastoma U87 MG RFP cells implanted in the brain of nude (immunodeficient) mice was used. Peptides were administered via osmotic pumps delivering the peptide directly to the tumour at a constant rate. […] Peptide I49 or control peptide I49S were administered using pumps for 3 weeks, pumps were installed in the mouse brain immediately after implantation of U87 MG RFP cells. Magnetic resonance imaging (MRI T2) was used to assess the size of the tumours.

T1 sequence (P06756 31-1048): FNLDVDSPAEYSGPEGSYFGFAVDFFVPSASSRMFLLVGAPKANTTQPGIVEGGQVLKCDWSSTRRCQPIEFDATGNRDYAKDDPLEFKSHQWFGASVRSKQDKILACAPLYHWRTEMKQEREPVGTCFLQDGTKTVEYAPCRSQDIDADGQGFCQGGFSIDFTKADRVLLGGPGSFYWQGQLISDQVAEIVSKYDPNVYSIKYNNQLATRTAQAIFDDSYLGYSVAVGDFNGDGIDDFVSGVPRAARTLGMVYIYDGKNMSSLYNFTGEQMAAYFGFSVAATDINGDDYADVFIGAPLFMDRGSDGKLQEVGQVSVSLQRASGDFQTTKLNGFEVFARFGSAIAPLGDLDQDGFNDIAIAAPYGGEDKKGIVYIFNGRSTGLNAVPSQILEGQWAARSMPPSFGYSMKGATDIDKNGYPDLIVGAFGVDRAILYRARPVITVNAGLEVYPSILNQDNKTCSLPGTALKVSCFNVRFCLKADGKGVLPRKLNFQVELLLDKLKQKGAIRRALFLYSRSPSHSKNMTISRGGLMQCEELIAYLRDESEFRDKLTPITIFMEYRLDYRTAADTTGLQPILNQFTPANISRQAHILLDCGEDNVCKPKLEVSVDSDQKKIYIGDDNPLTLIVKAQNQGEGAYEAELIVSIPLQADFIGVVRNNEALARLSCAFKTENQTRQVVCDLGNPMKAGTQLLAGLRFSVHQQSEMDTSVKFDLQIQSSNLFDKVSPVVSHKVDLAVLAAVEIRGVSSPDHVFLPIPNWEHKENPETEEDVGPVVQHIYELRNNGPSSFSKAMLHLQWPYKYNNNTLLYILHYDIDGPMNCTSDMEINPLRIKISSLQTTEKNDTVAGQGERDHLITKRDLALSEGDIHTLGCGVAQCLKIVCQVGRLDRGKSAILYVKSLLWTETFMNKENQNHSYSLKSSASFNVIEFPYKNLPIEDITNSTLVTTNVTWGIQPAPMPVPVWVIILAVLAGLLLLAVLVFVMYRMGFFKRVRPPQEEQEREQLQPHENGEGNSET

peptide binding to OPN in ELISA [4]	Compound	clinical effectiveness [1]	inhibition of microglia-dependent glioma cell invasiveness [2]	effect on invasiveness of U87 cells in the presence of human SV40 microglia [3]	tumour growth compared to the control group [5]
	CC(C)[C@H]1C(=O)N[C@@H](CCCN=C(N)N)C(=O)NCC(=O)N[C@@H](CC(=O)O)C(=O)N[C@H](Cc2ccccc2)C(=O)N1C [cilengitide, cyclo-(Arg-Gly-Asp-DPhe-NMe-Val)]	did not show the effectiveness			
OPN-binding	SKYDPNVYSIKYNN (listed as Homo sapiens) [I40]		inhibited microglia-dependent glioma cell invasiveness	inhibited the invasiveness	
OPN-binding	SLYNFTGEQMAAYF (listed as Homo sapiens) [I50]		inhibited microglia-dependent glioma cell invasiveness	inhibited the invasiveness	
OPN-binding	YDGKNMSSLYNFTG [I49]		inhibited microglia-dependent glioma cell invasiveness	inhibited the invasiveness	reduction in tumour growth

Source: US20250282829A1, “ENGINEERED SYNTHETIC PEPTIDES, COMPOSITIONS COMPRISING SAME, AND METHODS OF USE THEREOF FOR TREATING MALIGNANT GLIOMAS” (INSTYTUT BIOLOGII DOSWIADCZALNEJ IM. MARCELEGO NENCKIEGO …, priority 2022, published 2025)
